Data from US20240239759A1, “ISOXAZOLINE COMPOSITIONS AND THEIR USE AS ANTIPARASITICS” (Intervet Inc., priority 2007, published 2024).
Values joined by “and” are separate entries in the source; they are usually repeats but may differ in a detail not shown here. Identical values can stand only once.

Legend:
[1] = system: bed bugs (C. lectularius); assay: Efficacy against bed bugs on Guinea pigs (Example 2C); format: in vivo, Cimex lectularius; conditions: Guinea pig
Description: (§1) Six Guinea pigs were treated orally, subcutaneously, or intraperitoneally with 10 mg/kg bodyweight of Compound 11-1 or fipronil (positive control). The Guinea pigs were locally co-infested with juvenile soft ticks (O. moubata) and bed bugs (C. lectularius) once before the treatment, and at different time points after treatment between days 2 and 50. Ten engorged ticks/bed bugs were collected to assess the percentage of killed individuals per species 24 hr after each infestation.
(§2) For Guinea pigs treated with Compound 11-1, the ticks and bed bugs died within 1 to 5 hr following infestation up to Day 29, and within 8 to 24 hr after day 29. For Guinea pigs treated with fipronil, ticks and bed bugs died within 1 to 7 hr after infestation up to Day 29, and within 8 to 24 hr after day 29.

[2] = Side effects in mice, flea study (Example 2A); format: in vivo; conditions: topical 100 ppm, oral or subcutaneous 10 mg/kg
Description: (§3) Mice were divided into groups of three, and treated topically with 100 ppm body weight, orally with 10 mg/kg bodyweight, or subcutaneously with 10 mg/kg bodyweight of Compound 11-1, fipronil (positive control), or nothing (negative control). These mice were sedated and infested with adult fleas (C. felis) 1, 3, 6, and 24 hr after treatment. Fleas were recovered from the mice after approximately 30 minutes of feeding. The assessment of flea inhibition (% of dead and damaged fleas) was conducted 1 and 24 hr after each infestation.

[3] = Side effects in mice, mite study (Example 2B); format: in vivo; conditions: topical 100 ppm, oral or subcutaneous 10 mg/kg, twice 7 days apart
Description: (§4) The mice were divided into groups of three, and treated topically with 100 ppm body weight, orally with 10 mg/kg body weight, or subcutaneously with 10 mg/kg body weight of Compound 11-1, fipronil (positive control), or nothing (negative control). This treatment was then repeated 7 days later. The infestation rate per mouse (“+”=low infestation rate, “++”=medium infestation rate, “+++”=high infestation rate) was assessed repeatedly on days 1, 6, 9, 13, and 23. Efficacy was defined as the inhibition of the mite infestation rate on treated mice relative to the negative control group.

[4] = system: brown dog ticks, R. sanguineus (nymphs); assay: Efficacy against hard (Ixodide) ticks on Guinea pigs (Example 2D); format: in vivo, Rhipicephalus sanguineus; conditions: all treated groups of Study 1 (100 ppm dip, 10 mg/kg oral, 10 mg/kg subcutaneous) and Study 2 (25 ppm dip, 2.5 mg/kg oral, 2.5 mg/kg subcutaneous), Day 4 to Day 8
Description: (§5) Guinea pigs were divided into groups of three. Each group was subjected to one of the following treatments with either Compound 11-1, fipronil (positive control), or neither (negative control):
(§6) • 1. 100 ppm body weight topical administration by animal dip • 2. 10 mg/kg body weight oral administration • 3. 10 mg/kg body weight subcutaneous administration • 4. No treatment (negative control)
(§7) • 1. 25 ppm body weight topical administration by animal dip • 2. 2.5 mg/kg body weight oral administration • 3. 2.5 mg/kg body weight subcutaneous administration • 4. No treatment (negative control) One day before the treatment, all the Guinea pigs were infested with 100 vital juvenile (“nymph”) hard ticks (brown dog ticks, R. sanguineus). Engorged, detached nymphs were counted (eN) from Day 4 to Day 8 to calculate the efficacy of the treatments according to following formula: […]
In addition, collected ticks were assessed for molting into the next stage.

M. musculinus = assay: Efficacy against mites on mice (Example 2B); format: in vivo, Myocoptes musculinus; design: key: “+”=low infestation rate; “++”=medium infestation rate; “+++”=high infestation rate; conditions: repeated 7 days later
Description: as §4

adult fleas (C. felis) = assay: Efficacy against fleas on mice (Example 2A); format: in vivo, Ctenocephalides felis
Description: as §3

[5] = system: cat fleas (Ctenocephalides felis); assay: Adult fleas fed on artificial membranes with spiked blood (Example 1); conditions: 48 hr continuous feeding
Description: Adult fleas (20-30) were fed on artificial membranes with blood spiked with Compound 10-1, Compound 11-1, or a positive control (fipronil) at a concentration of 100, 10, or 1 ppm. Flea efficacy was assessed after 48 hr of continuous feeding by comparing the number of killed and damaged fleas with the number of fed fleas. Flea efficacy was 100% for Compound 10-1, Compound 11-1, and fipronil at 100, 10, and 1 ppm.

[6] = Side effects in Guinea pigs, soft tick and bed bug study (Example 2C); format: in vivo
Description: as §1

[7] = system: juvenile soft ticks (O. moubata); assay: Efficacy against soft (Argaside) ticks on Guinea pigs (Example 2C); format: in vivo, Ornithodoros moubata; conditions: Guinea pig
Description: as §1, §2

[8] = Side effects in Guinea pigs, hard tick studies (Example 2D); format: in vivo; conditions: Guinea pigs; either study (topical dip, oral, subcutaneous)
Description: as §5, §6, §7
In the first study, 32 engorged R. sanguineus nymphs were collected from animals of the untreated negative control group. And in the second study, 75 engorged R. sanguineus nymphs were collected from animals of the untreated negative control group. […] Thus, the inhibition of engorged nymphs for both Compound 11-1 and fipronil was 100%.

## Cc1cc(C2=NOC(c3cc(Cl)cc(Cl)c3)(C(F)(F)F)C2)ccc1C(=O)NCC(=O)NCC(F)(F)F (racemic) [Compound 11-1, 4-[5-(3,5-dichlorophenyl)-5-trifluoromethyl-4,5-dihydroisoxazol-3-yl]-2-methyl-N-[(2,2,2-trifluoro-ethylcarbamoyl)-methyl]-benzamide]
[1]; intraperitoneal 10 mg/kg, after Day 35
  Efficacy against bed bugs (killed 24 hr after infestation): 35. No efficacy was detected after Day 35.
[1]; intraperitoneal 10 mg/kg, up to Day 33
  Efficacy against bed bugs (killed 24 hr after infestation): 100% efficacy was observed up to Day 33.
[1]; oral 10 mg/kg, up to Day 31
  Efficacy against bed bugs (killed 24 hr after infestation): 100% efficacy was observed up to Day 31.
[1]; subcutaneous 10 mg/kg, after Day 42
  Efficacy against bed bugs (killed 24 hr after infestation): 42. No efficacy was detected after Day 42.
[1]; subcutaneous 10 mg/kg, up to Day 35
  Efficacy against bed bugs (killed 24 hr after infestation): 100% efficacy was observed up to Day 35.
[1]; subcutaneous 10 mg/kg, up to Day 40
  Efficacy against bed bugs (killed 24 hr after infestation): 90% efficacy was observed up to Day 40.
[2]
  Side effects: No side effects were observed
[3]
  Side effects: No side effects were observed
[4]
  Engorged R. sanguineus nymphs collected: no nymphs were collected
  Inhibition of engorged nymphs: 100%
M. musculinus; oral 10 mg/kg, Day 1
  Mite infestation rate per mouse: + to ++
M. musculinus; oral 10 mg/kg, Day 6
  Mite infestation rate per mouse: ++
M. musculinus; oral 10 mg/kg, Day 9, 10 mg/kg
  Mite infestation rate per mouse: 2 mice: none and 1 mouse: +
M. musculinus; oral 10 mg/kg, Day 13
  Mite infestation rate per mouse: none
M. musculinus; oral 10 mg/kg, Day 23
  Mite infestation rate per mouse: none
M. musculinus; subcutaneous 10 mg/kg, Day 1
  Mite infestation rate per mouse: + to ++
M. musculinus; subcutaneous 10 mg/kg, Day 6
  Mite infestation rate per mouse: ++
M. musculinus; subcutaneous 10 mg/kg, Day 9
  Mite infestation rate per mouse: none
M. musculinus; subcutaneous 10 mg/kg, Day 13
  Mite infestation rate per mouse: none
M. musculinus; subcutaneous 10 mg/kg, Day 23
  Mite infestation rate per mouse: none
M. musculinus; topical 100 ppm body weight, Day 1
  Mite infestation rate per mouse: +
M. musculinus; topical 100 ppm body weight, Day 6
  Mite infestation rate per mouse: 2 mice: none and 1 mouse: +
M. musculinus; topical 100 ppm body weight, Day 9
  Mite infestation rate per mouse: none
M. musculinus; topical 100 ppm body weight, Day 13
  Mite infestation rate per mouse: none
M. musculinus; topical 100 ppm body weight, Day 23
  Mite infestation rate per mouse: none
Adult fleas (C. felis); oral 10 mg/kg, infested 1 hr after treatment, assessed 1 hr after infestation
  Flea inhibition (% of dead and damaged fleas): 43.3%
Adult fleas (C. felis); oral 10 mg/kg, infested 1 hr after treatment, assessed 24 hr after infestation
  Flea inhibition (% of dead and damaged fleas): 67.7%
Adult fleas (C. felis); oral 10 mg/kg, infested 3 hr after treatment, assessed 1 hr after infestation
  Flea inhibition (% of dead and damaged fleas): 44.3%
Adult fleas (C. felis); oral 10 mg/kg, infested 3 hr after treatment, assessed 24 hr after infestation
  Flea inhibition (% of dead and damaged fleas): 48.7%
Adult fleas (C. felis); oral 10 mg/kg, infested 6 hr after treatment, assessed 1 hr after infestation
  Flea inhibition (% of dead and damaged fleas): 17.7%
Adult fleas (C. felis); oral 10 mg/kg, infested 6 hr after treatment, assessed 24 hr after infestation
  Flea inhibition (% of dead and damaged fleas): 26.7%
Adult fleas (C. felis); oral 10 mg/kg, infested 24 hr after treatment, assessed 1 hr after infestation
  Flea inhibition (% of dead and damaged fleas): 37.7%
Adult fleas (C. felis); oral 10 mg/kg, infested 24 hr after treatment, assessed 24 hr after infestation
  Flea inhibition (% of dead and damaged fleas): 82.0%
Adult fleas (C. felis); subcutaneous 10 mg/kg, infested 1 hr after treatment, assessed 1 hr after infestation
  Flea inhibition (% of dead and damaged fleas): 7.7%
Adult fleas (C. felis); subcutaneous 10 mg/kg, infested 1 hr after treatment, assessed 24 hr after infestation
  Flea inhibition (% of dead and damaged fleas): 40.0%
Adult fleas (C. felis); subcutaneous 10 mg/kg, infested 3 hr after treatment, assessed 1 hr after infestation
  Flea inhibition (% of dead and damaged fleas): 31.0%
Adult fleas (C. felis); subcutaneous 10 mg/kg, infested 3 hr after treatment, assessed 24 hr after infestation
  Flea inhibition (% of dead and damaged fleas): 42.3%
Adult fleas (C. felis); subcutaneous 10 mg/kg, infested 6 hr after treatment, assessed 1 hr after infestation
  Flea inhibition (% of dead and damaged fleas): 21.0%
Adult fleas (C. felis); subcutaneous 10 mg/kg, infested 6 hr after treatment, assessed 24 hr after infestation
  Flea inhibition (% of dead and damaged fleas): 36.7%
Adult fleas (C. felis); subcutaneous 10 mg/kg, infested 24 hr after treatment, assessed 1 hr after infestation
  Flea inhibition (% of dead and damaged fleas): 100%
Adult fleas (C. felis); subcutaneous 10 mg/kg, infested 24 hr after treatment, assessed 24 hr after infestation
  Flea inhibition (% of dead and damaged fleas): 100%
Adult fleas (C. felis); topical 100 ppm body weight, infested 1 hr after treatment, assessed 1 hr after infestation
  Flea inhibition (% of dead and damaged fleas): 0%
Adult fleas (C. felis); topical 100 ppm body weight, infested 1 hr after treatment, assessed 24 hr after infestation
  Flea inhibition (% of dead and damaged fleas): 97.7%
Adult fleas (C. felis); topical 100 ppm body weight, infested 3 hr after treatment, assessed 1 hr after infestation
  Flea inhibition (% of dead and damaged fleas): 0%
Adult fleas (C. felis); topical 100 ppm body weight, infested 3 hr after treatment, assessed 24 hr after infestation
  Flea inhibition (% of dead and damaged fleas): 99.0%
Adult fleas (C. felis); topical 100 ppm body weight, infested 6 hr after treatment, assessed 1 hr after infestation
  Flea inhibition (% of dead and damaged fleas): 0%
Adult fleas (C. felis); topical 100 ppm body weight, infested 6 hr after treatment, assessed 24 hr after infestation
  Flea inhibition (% of dead and damaged fleas): 81.0%
Adult fleas (C. felis); topical 100 ppm body weight, infested 24 hr after treatment, assessed 1 hr after infestation
  Flea inhibition (% of dead and damaged fleas): 2%
Adult fleas (C. felis); topical 100 ppm body weight, infested 24 hr after treatment, assessed 24 hr after infestation
  Flea inhibition (% of dead and damaged fleas): 93.3%
[5]; blood spiked at 1 ppm
  Flea efficacy: 100%
[5]; blood spiked at 10 ppm
  Flea efficacy: 100%
[5]; blood spiked at 100 ppm
  Flea efficacy: 100%
[6]; Guinea pig, oral 10 mg/kg, without clinical symptoms
  Death of the orally treated Guinea pig (Animal No. 1) after Day 31: not considered to be treatment-related
[6]; Guinea pigs, oral, subcutaneous or intraperitoneal 10 mg/kg
  Side effects: No side effects were observed
[7]; intraperitoneal 10 mg/kg, after Day 31
  Efficacy against soft ticks (killed 24 hr after infestation): No efficacy was detected after Day 31.
[7]; intraperitoneal 10 mg/kg, up to Day 31
  Efficacy against soft ticks (killed 24 hr after infestation): 100% efficacy was observed up to Day 31.
[7]; oral 10 mg/kg, up to Day 31
  Efficacy against soft ticks (killed 24 hr after infestation): 100% efficacy was observed up to Day 31.
[7]; subcutaneous 10 mg/kg, after Day 33
  Efficacy against soft ticks (killed 24 hr after infestation): No efficacy was detected after Day 33.
[7]; subcutaneous 10 mg/kg, up to Day 31
  Efficacy against soft ticks (killed 24 hr after infestation): 100% efficacy was observed up to Day 31.
[7]; subcutaneous 10 mg/kg, up to Day 33
  Efficacy against soft ticks (killed 24 hr after infestation): 70% efficacy was observed up to Day 33.
[8]
  Side effects: No side effects were observed
